Reference: patent publication US20260103497A1, “DUAL GLP-1 AND GIP RECEPTOR AGONIST PHARMACEUTICAL COMPOSITION AND USE THEREOF” (BRIGHTGENE PTE. LTD., priority 2022, published 2026)

Columns and labels:
[1] = Pre-clinical pharmacokinetics in rats; details: rat, in vivo
GLP-1 receptor = GLP-1 receptor (Homo sapiens, UniProt P43220); assay: Preclinical agonistic effect on GLP-1 receptor; details: greater activity compared to Tirzepatide; preclinical studies
[2] = Pre-clinical pharmacokinetics in cynomolgus monkeys; details: cynomolgus monkey, in vivo
[3] = Solubility of the compound of formula I in compositions with sodium chloride or propylene glycol; format: physicochemical; details: disodium hydrogen phosphate dodecahydrate, pH 7, water for injection
Excerpt: It is worth mentioning that in polypeptide-based preparations, sodium chloride is believed to play a role in maintaining electrolyte balance and stabilizing polypeptide structures, and it is present as a stabilizer in a variety of existing polypeptide-based preparations.

GIP receptor = molecular target: T1, GIP receptor (Homo sapiens, UniProt P48546); assay: Preclinical agonistic effect on GIP receptor; details: greater activity compared to Tirzepatide; preclinical studies
T1 sequence (P48546 22-466): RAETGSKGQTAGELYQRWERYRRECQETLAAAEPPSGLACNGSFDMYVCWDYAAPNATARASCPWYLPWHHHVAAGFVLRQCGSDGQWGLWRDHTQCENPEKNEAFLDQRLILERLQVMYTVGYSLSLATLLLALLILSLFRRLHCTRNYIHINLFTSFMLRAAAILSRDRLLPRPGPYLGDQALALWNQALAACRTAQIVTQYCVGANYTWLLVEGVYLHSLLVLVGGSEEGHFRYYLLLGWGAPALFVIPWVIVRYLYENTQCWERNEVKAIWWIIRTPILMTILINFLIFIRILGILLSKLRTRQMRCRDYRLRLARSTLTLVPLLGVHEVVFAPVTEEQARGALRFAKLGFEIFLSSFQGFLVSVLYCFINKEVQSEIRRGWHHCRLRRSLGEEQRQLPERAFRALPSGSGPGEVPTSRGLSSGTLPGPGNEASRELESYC

plasma proteins = assay: Plasma protein binding; format: in vitro ADME; details: plasma proteins from all species

Sequence of GLP-1 receptor (P43220 24-463, species assumed): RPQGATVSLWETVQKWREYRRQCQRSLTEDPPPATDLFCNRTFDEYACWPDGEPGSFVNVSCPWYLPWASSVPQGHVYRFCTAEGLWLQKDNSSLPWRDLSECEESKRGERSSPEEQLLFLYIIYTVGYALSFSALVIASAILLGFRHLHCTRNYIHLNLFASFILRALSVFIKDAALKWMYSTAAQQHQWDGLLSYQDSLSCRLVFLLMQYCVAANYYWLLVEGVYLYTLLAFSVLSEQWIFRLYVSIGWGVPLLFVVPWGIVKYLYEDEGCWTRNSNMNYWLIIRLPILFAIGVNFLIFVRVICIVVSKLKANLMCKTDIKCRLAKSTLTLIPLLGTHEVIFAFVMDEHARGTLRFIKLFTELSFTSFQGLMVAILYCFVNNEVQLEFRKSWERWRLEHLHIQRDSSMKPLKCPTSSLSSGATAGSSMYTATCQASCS

- half-life [1]: ~14 h
- agonistic activity on GLP-1 receptor compared to Tirzepatide (GLP-1 receptor): 2- to 3 fold
- half-life [2]: ~40 h
- solubility ([3]; pH 7, propylene glycol as stabilizer (14 mg in 1 mL)): ≥ 30000 µg/mL
- solubility ([3]; sodium chloride instead of propylene glycol (16.4 mg in 2 mL)): 150 µg/mL
- agonistic activity on GIP receptor compared to Tirzepatide (GIP receptor): 2- to 3 fold
- binding rates to plasma proteins (plasma proteins): over 99.4%
Compound: NC(=O)C(CCCCNC(=O)COCCOCCOCCNC(=O)COCCOCCOCCNC(=O)CCC(NC(=O)CC(=O)O)C(=O)O)NN[C@H](C=O)CO (stereo partly shown) [Compound of formula I]
